According to US10105357B2, “Indication of antibiotic drugs for preparation of cancer inhibition pharmaceutical composition” (LAUNX BIOMEDICAL CO., LTD., priority 2014, dated 2018):
Read-outs that look alike come from different tables or passages of the source.

Tests used:
[1] = test system: MKN-45 (Gastric Adenocarcinoma); experiment: Cell viability analysis, gastric cancer MKN-45; type: cell-based, human; conditions: Homo sapiens, MKN-45, 72 h
[2] = test system: AsPC-1; experiment: Cell viability analysis, pancreatic cancer AsPC-1; type: cell-based, human; conditions: Homo sapiens, ASPC1, 72 h, read-out: The results of antibiotic drug inhibiting cancer cell lines (cell viability analysis), AsPC-1
[3] = test system: BCC (basal cell carcinoma); experiment: Cell viability analysis, skin cancer BCC; type: cell-based, human; conditions: Homo sapiens, 72 h, read-out: The results of antibiotic drug inhibiting cancer cell lines (cell viability analysis), BCC
[4] = test system: MDA-MB-231 (Mammary Gland, Adenocarcinoma); experiment: Cell viability analysis, breast cancer MDA-MB-231; type: cell-based, human; conditions: Homo sapiens, MDA-MB-231, 72 h, read-out: The results of antibiotic drug inhibiting cancer cell lines (cell viability analysis), MDA-MB231
[5] = test system: C-33A (Cervical carcinoma); experiment: Cell viability analysis, cervical cancer C-33A; type: cell-based, human; conditions: Homo sapiens, C-33-A, 72 h, read-out: The results of antibiotic drug inhibiting cancer cell lines (cell viability analysis), C-33A
[6] = test system: U-2OS; experiment: Cell viability analysis, osteosarcoma U-2OS; type: cell-based, human; conditions: Homo sapiens, U2OS, 72 h, read-out: The results of antibiotic drug inhibiting cancer cell lines (cell viability analysis), U2OS
[7] = test system: NIH: OVCAR-3; experiment: Cell viability analysis, ovarian cancer NIH: OVCAR-3; type: cell-based, human; conditions: Homo sapiens, OVCAR-3, 72 h, read-out: The results of antibiotic drug inhibiting cancer cell lines (cell viability analysis), NIH-OVCAR-3
[8] = test system: HCT116 (p53+) (Colorectal Carcinoma)
[9] = test system: SAS (Tongue squamous cell carcinoma); experiment: Cell viability analysis, tongue cancer SAS; type: cell-based, human; conditions: Homo sapiens, 72 h, read-out: The results of antibiotic drug inhibiting cancer cell lines (cell viability analysis), SAS
[10] = test system: HI650 (Lung Adenocarcinoma); experiment: Cell viability analysis, lung cancer HI650; type: cell-based, human; conditions: Homo sapiens, NCI-H1650, 72 h
[11] = test system: PC3 (p53−) (Prostate Adenocarcinoma); experiment: Cell viability analysis, prostate cancer PC3; type: cell-based, human; conditions: Homo sapiens, 72 h
[12] = test system: LoVo (Colorectal Adenocarcinoma); experiment: Cell viability analysis, colon cancer LoVo; type: cell-based, human; conditions: Homo sapiens, LoVo, 72 h
[13] = test system: A375 (Amelanotic Melanoma); experiment: Cell viability analysis, skin cancer A375; type: cell-based, human; conditions: Homo sapiens, A-375, 72 h
[14] = test system: T24; experiment: Cell viability analysis, bladder cancer T24; type: cell-based, human; conditions: Homo sapiens, T-24, 72 h, read-out: The results of antibiotic drug inhibiting cancer cell lines (cell viability analysis), T24
[15] = test system: A549 (Lung Adenocarcinoma); experiment: Cell viability analysis, lung cancer A549; type: cell-based, human; conditions: Homo sapiens, A549, 72 h
[16] = test system: MCF7 (Mammary Gland, Adenocarcinoma); experiment: Cell viability analysis, breast cancer MCF7; type: cell-based, human; conditions: Homo sapiens, MCF7, 72 h
[17] = test system: BxPC-3; experiment: Cell viability analysis, pancreatic cancer BxPC-3; type: cell-based, human; conditions: Homo sapiens, BXPC-3, 72 h, read-out: The results of antibiotic drug inhibiting cancer cell lines (cell viability analysis), BxPC-3
[18] = test system: AGS (Gastric Adenocarcinoma); experiment: Cell viability analysis, gastric cancer AGS; type: cell-based, human; conditions: Homo sapiens, 72 h
[19] = test system: TOV-21G; experiment: Cell viability analysis, ovarian cancer TOV-21G; type: cell-based, human; conditions: Homo sapiens, TOV21G, 72 h, read-out: The results of antibiotic drug inhibiting cancer cell lines (cell viability analysis), TOV-21G
[20] = test system: HeLa (Cervix Adenocarcinoma); experiment: Cell viability analysis, cervical cancer HeLa; type: cell-based, human; conditions: Homo sapiens, HeLa, 72 h
[21] = test system: HepG2 (Hepatocellular Carcinoma); experiment: Cell viability analysis, hepatic cancer HepG2; type: cell-based, human; conditions: Homo sapiens, HepG2, 72 h
[22] = test system: 786-O (Renal adenocarcinoma); experiment: Cell viability analysis, renal cancer 786-O; type: cell-based, human; conditions: Homo sapiens, 786-0, 72 h, read-out: The results of antibiotic drug inhibiting cancer cell lines (cell viability analysis), 786-O
[23] = test system: TSGH-8301 (Urinary Bladder Carcinoma); experiment: Cell viability analysis, bladder cancer TSGH-8301; type: cell-based, human; conditions: Homo sapiens, 72 h
[24] = test system: Hep3B (hepatocellular carcinoma); experiment: Cell viability analysis, hepatic cancer Hep3B; type: cell-based, human; conditions: Homo sapiens, Hep3B, 72 h, read-out: The results of antibiotic drug inhibiting cancer cell lines (cell viability analysis), Hep3B

For `Clc1ccc(COC(Cn2ccnc2)c2ccc(Cl)cc2Cl)c(Cl)c1` (centres unmarked) [Miconazole nitrate], the viability at 10 µM ([1]; read-out: The results of antibiotic drug inhibiting cancer cell lines (cell viability analysis), MKN-45, MKN-45, repeated experiment) was 99.8%, the viability at 10 µM ([1]; read-out: cell viability (survival rate), MKN-45, drug 10 μM, 72 hours, WST-1, OD450 nm) was 45% and the viability at 10 µM [2] was 75.5%. It also gave a viability at 10 µM [3] of 80.7%, a viability at 10 µM [4] of 107% and a viability at 10 µM [5] of 117%. The viability at 10 µM [6] was 64.2%, the viability at 10 µM [7] was 94.8% and the viability [8] was 122%. The viability at 10 µM [9] was 69.6%, the viability at 10 µM ([10]; read-out: The results of antibiotic drug inhibiting cancer cell lines (cell viability analysis), H1650, H1650, repeated experiment) was 83.1% and the viability at 10 µM ([10]; read-out: cell viability (survival rate), H1650, drug 10 μM, 72 hours, WST-1, OD450 nm) was 68.8%. It also gave a viability at 10 µM ([11]; read-out: The results of antibiotic drug inhibiting cancer cell lines (cell viability analysis), PC-3, PC-3, repeated experiment) of 116%, a viability at 10 µM ([11]; read-out: cell viability (survival rate), PC3, drug 10 μM, 72 hours, WST-1, OD450 nm) of 30.4% and a viability at 10 µM ([12]; read-out: The results of antibiotic drug inhibiting cancer cell lines (cell viability analysis), LoVo, repeated experiment) of 81.3%. For the same compound, the viability at 10 µM ([12]; read-out: cell viability (survival rate), LoVo, drug 10 μM, 72 hours, WST-1, OD450 nm) was 62.1%, the viability at 10 µM ([13]; read-out: The results of antibiotic drug inhibiting cancer cell lines (cell viability analysis), A375, A375, repeated experiment) was 100% and the viability at 10 µM ([13]; read-out: cell viability (survival rate), A375, drug 10 μM, 72 hours, WST-1, OD450 nm) was 31.5%. The viability at 10 µM [14] was 77.7%, the viability at 10 µM ([15]; read-out: The results of antibiotic drug inhibiting cancer cell lines (cell viability analysis), A549, A549, repeated experiment) was 97.3% and the viability at 10 µM ([15]; read-out: cell viability (survival rate), A549, drug 10 μM, 72 hours, WST-1, OD450 nm) was 37.3%. For the same compound, the viability at 10 µM ([16]; read-out: The results of antibiotic drug inhibiting cancer cell lines (cell viability analysis), MCF-7, MCF-7, repeated experiment) was 95.6%, the viability at 10 µM ([16]; read-out: cell viability (survival rate), MCF7, drug 10 μM, 72 hours, WST-1, OD450 nm) was 50.7% and the viability at 10 µM [17] was 65.3%. The viability at 10 µM ([18]; read-out: The results of antibiotic drug inhibiting cancer cell lines (cell viability analysis), AGS, repeated experiment) was 114%, the viability at 10 µM ([18]; read-out: cell viability (survival rate), AGS, drug 10 μM, 72 hours, WST-1, OD450 nm) was 51.1% and the viability at 10 µM [19] was 80.6%. For the same compound, the viability at 10 µM ([20]; read-out: The results of antibiotic drug inhibiting cancer cell lines (cell viability analysis), HeLa, repeated experiment) was 95.7%, the viability at 10 µM ([20]; read-out: cell viability (survival rate), HeLa, drug 10 μM, 72 hours, WST-1, OD450 nm) was 57.6% and the viability at 10 µM ([21]; read-out: The results of antibiotic drug inhibiting cancer cell lines (cell viability analysis), HepG2, HepG2, repeated experiment) was 108%. For the same compound, the viability at 10 µM ([21]; read-out: cell viability (survival rate), HepG2, drug 10 μM, 72 hours, WST-1, OD450 nm) was 104%, the viability at 10 µM [22] was 75.2% and the viability at 10 µM ([23]; read-out: The results of antibiotic drug inhibiting cancer cell lines (cell viability analysis), TSGH-8301, TSGH-8301, repeated experiment) was 102%. It also gave a viability at 10 µM ([23]; read-out: cell viability (survival rate), TSGH, drug 10 μM, 72 hours, WST-1, OD450 nm) of 41.8% and a viability at 10 µM [24] of 126%.
